No end group written: not given here.
Test system: serum corticosterone in dexamethasone-suppressed mice
Test: in vivo Serum Corticosteroid Induction Assay
Set-up: species or system FVB/N mice
Conditions: compared to unmodified mACTH(1–24); 1 μg s.c.; blood one hour after administration
Protocol: An in vivo Serum Corticosteroid Induction Assay measures the level of corticosteroid or corticosterone in the blood stream of a subject. More specifically, the in vivo Serum Corticosteroid Induction Assay can include the following steps: first, an agent to suppress endogenous ACTH production was administered to a mouse subject, such as an intraperitoneal injection of dexamethasone; second, after waiting a suitable period of time for suppression of endogenous ACTH production (e.g., 1.5–2.0 hours), a test compound can be administered to the mouse by a suitable method, such as intraperitoneal or subcutaneous injection; and third, after waiting a suitable period of time (e.g., 1 hour) for action of the injected test compound, a blood sample can be taken from the subject and the level of serum corticosterone can be determined by a suitable method, such as a competitive radioimmunoassay using ^125I RIA kit (ICN, Costa Mesa, Calif.). Example 1 describes a murine in vivo Serum Corticosteroid Induction Assay in detail.
The corticosteroid or corticosterone secretion induced in vivo by an ACTH analog compound was compared to the level of corticosteroid secretion produced by an unmodified ACTH compound by measuring blood serum corticosteroid after administering either the ACTH or ACTH analog as test compounds. […] ACTH analog compositions with decreased function were identified by measuring corticosterone levels using standard radioimmunoassay (RIA) analysis on blood samples collected one hour after administering the mACTH(1–24) or ACTH analog compound to dexamethasone-suppressed mice. In FIG. 1, the potency of various ACTH analog peptides is expressed as per cent induction of corticosterone, with mouse ACTH being 100%. […] The percent of corticosterone induction 12 of ACTH analog Compounds in Samples 2–10 are shown as a percentage of the concentration of serum corticosterone 20 measured for unmodified mACTH(1–24) in the in vivo Serum Corticosteroid Adrenal Induction Assay. The structural modifications and measured percentage reduction in serum measured for Samples 2–10 in FIG. 1 are shown in Table 3 below.
The in vivo Serum Corticosteroid Induction Assay was performed according the following method. First, two to three month-old male FVB/N mice from our colony, five per group, were injected intraperitoneally with dexamethasone (0.4 mg/0.1 ml PBS per mouse; Sigma, St. Louis, Mo.) to suppress their endogenous ACTH production. See Hajos, G T et al., “Studies of the potency of polypeptides with ACTH action by a new method based on continuous measurement of plasma corticosterone,” Steroids Lipids Res 3:225–228 (1972), Costa, J L, et al., “Mutational analysis of evolutionarily conserved ACTH residues,” Gen Comp Endocrinol, 136:12–16 (2004), and Karpac, J, et al., “Development, Maintenance, and Function of the Adrenal Gland in Early Postnatal Pro-opiomelanocortin Null Mutant Mice,” Endocrinology (2005), published online ahead of print Feb. 24, 2005, all of which are incorporated herein by reference.
Second, ninety to one hundred twenty minutes later, the dexamethasone-suppressed mice were injected subcutaneously between the shoulder blades with either unmodified mACTH(1–24) or one of several ACTH analog peptide compounds (1 μg/0.1 mL PBS/0.5% BSA), or with vehicle alone (control) (0.1 mL PBS/0.5% BSA). The following ACTH analog peptide compounds were administered to separate mice: 1: murine ACTH1–24; 2: V26F,E30K; 3: P19W,K21E,Y23R; 4: E30K,P36R; 5: ALA19–24; 6: V26F,P36R; 7: P19W, K21E; 8: P19W,K21A,delY23; 9: P19W,K21A; 10: KRRP16-19RMW (AT814) (SEQ ID NO:20).
Third, one hour later, blood was collected within less than 1 minute from a small incision in the tail, and serum was flash-frozen and stored at −80° C. until assayed. Serum corticosterone was determined by competitive radioimmunoassay (^125I RIA kit; ICN, Costa Mesa, Calif.) according to the manufacturer's recommendations. One microliter of serum was used per assay sample. […]

N-Ser^1-Tyr-Ser-Met-Glu^5-His-Phe-Arg-Trp-Gly^10-Lys-Pro-Val-Gly-Lys^15-Arg-Ala-Ala-Trp-Val^20-Lys-Val-Tyr-Pro-Ac (SYSMEHFRWGKPVGKRAAWVKVYP; not fully specified (C-terminus); printed as N-Ser1-Tyr-Ser-Met-Glu5-His-Phe-Arg-Trp-Gly10-Lys-Pro-Val-Gly-Lys15-Arg-Ala-Ala-Trp-Val20-Lys-Val-Tyr-Pro-Ac) [AT814]
Percent reduction in serum corticosteroid: 100%
